Measured values taken from patent publication US10765114B2, “4-amino-6-(pyridyl and 2-substitutedphenyl)-picolinates and 6-amino-2-(pyridyl and 2-substitutedphenyl)-pyrimidine-4-carboxylates and their use as herbicides” (Dow AgroSciences LLC, priority 2013, dated 2020).

What was measured:
Experiment in all cases: Post-Emergent Test III (Wheat and Barley)
SETVI (green foxtail) = type: in vivo, Setaria viridis; conditions: for pest or weed control at 35 g/ha / pest or weed control at 70 g/ha / pest or weed control at 140 g/ha: Setaria viridis, post-emergence, 504 h, postemergence, read-out: Visual Growth Reduction (%) 21 Days After Application, SETVI; for pest or weed control at 35 g/ha: 35 g ai/ha; for pest or weed control at 70 g/ha: 70 g ai/ha; for pest or weed control at 140 g/ha: 140 g ai/ha; for GR50, SETVI: effective dose for growth reduction of 50 percent; for GR50, SETVI / GR80, SETVI: probit analysis; for GR80, SETVI: effective dose for growth reduction of 80 percent
Procedure: (§1) Seeds of the desired test plant species were planted in Sun Gro MetroMix® 306 planting mixture, which typically has a pH of 6.0 to 6.8 and an organic matter content of about 30 percent, in plastic pots with a surface area of 103.2 square centimeters (cm^2). When required to ensure good germination and healthy plants, a fungicide treatment and/or other chemical or physical treatment was applied. The plants were grown for 7-36 days in a greenhouse with an approximate 14 h photoperiod which was maintained at about 18° C. during the day and 17° C. during the night. Nutrients and water were added on a regular basis and supplemental lighting was provided with overhead metal halide 1000-Watt lamps as necessary. The plants were employed for testing when they reached the second or third true leaf stage.
(§2) A weighed amount, determined by the highest rate to be tested, of each test compound was placed in a 25 mL glass vial and was dissolved in 4 mL of a 97:3 v/v mixture of acetone and DMSO to obtain concentrated stock solutions. […] The concentrated stock solutions obtained were diluted with 20 mL of an aqueous mixture containing acetone, water, isopropyl alcohol, DMSO, Agri-Dex crop oil concentrate, and X-77 surfactant in a 48:39:10:1.5:1.5:0.02 v/v ratio to obtain spray solutions containing the highest application rates. Additional application rates were obtained by serial dilution of 12 mL of the high rate solution into a solution containing 2 mL of 97:3 v/v mixture of acetone and DMSO and 10 mL of an aqueous mixture containing acetone, water, isopropyl alcohol, DMSO, Agri-Dex crop oil concentrate, and X-77 surfactant in a 48:39:10:1.5:1.5:0.02 v/v ratio to obtain ½×, ¼×, ⅛× and 1/16× rates of the high rate. Compound requirements are based upon a 12 mL application volume at a rate of 187 liters per hectare (L/ha). Formulated compounds were applied to the plant material with an overhead Mandel track sprayer equipped with 8002E nozzles calibrated to deliver 187 L/ha over an application area of 0.503 square meters at a spray height of 18 inches (43 cm) above the average plant canopy height. Control plants were sprayed in the same manner with the solvent blank.
(§3) The treated plants and control plants were placed in a greenhouse as described above and watered by subirrigation to prevent wash-off of the test compounds. After 21 dAYS, the condition of the test plants as compared with that of the untreated plants was determined visually and scored on a scale of 0 to 100 percent where 0 corresponds to no injury and 100 corresponds to complete kill and presented as indicated in Table A.
(§4) By applying the well-accepted probit analysis as described by J. Berkson in Journal of the American Statistical Society, 48, 565 (1953) and by D. Finney in “Probit Analysis” Cambridge University Press (1952), herbicidal injury of a specific compound at various rates can be used to calculate GR10, GR20, GR50, GR80 and GR90 values, which are defined as growth reduction factors that correspond to the effective dose of herbicide required to provide plant growth reduction (GR) of 10 percent, 20 percent, 50 percent, 80 percent and 90 percent, respectively. Probit analysis was applied to data collected from multiple dose rates of individual compounds utilizing the procedures explained in the following examples. The analysis of those dose rates is captured in the following tables.

APESV (windgrass) = type: in vivo, Apera spica-venti; conditions: for pest or weed control at 35 g/ha / pest or weed control at 70 g/ha / pest or weed control at 140 g/ha: Apera spica-venti, post-emergence, 504 h, postemergence, read-out: Visual Growth Reduction (%) 21 Days After Application, APESV; for pest or weed control at 35 g/ha: 35 g ai/ha; for pest or weed control at 70 g/ha: 70 g ai/ha; for pest or weed control at 140 g/ha: 140 g ai/ha; for GR50, APESV: effective dose for growth reduction of 50 percent; for GR50, APESV / GR80, APESV: probit analysis; for GR80, APESV: effective dose for growth reduction of 80 percent
Procedure: as §1, §2, §3, §4

TRZSS = type: in vivo; conditions: for pest or weed control at 35 g/ha / pest or weed control at 70 g/ha / pest or weed control at 140 g/ha: Triticum aestivum, post-emergence, 504 h, postemergence, read-out: Visual Growth Reduction (%) 21 Days After Application, TRZSS; for pest or weed control at 35 g/ha: 35 g ai/ha; for pest or weed control at 70 g/ha: 70 g ai/ha; for pest or weed control at 140 g/ha: 140 g ai/ha; for GR20, TRZSS: effective dose for growth reduction of 20 percent, probit analysis
Procedure: as §1, §2, §3, §4

HORSS = type: in vivo; conditions: for pest or weed control at 35 g/ha / pest or weed control at 70 g/ha / pest or weed control at 140 g/ha: Hordeum vulgare, post-emergence, 504 h, postemergence, read-out: Visual Growth Reduction (%) 21 Days After Application, HORSS; for pest or weed control at 35 g/ha: 35 g ai/ha; for pest or weed control at 70 g/ha: 70 g ai/ha; for pest or weed control at 140 g/ha: 140 g ai/ha; for GR20, HORSS: effective dose for growth reduction of 20 percent, probit analysis
Procedure: as §1, §2, §3, §4

KCHSC (kochia) = type: in vivo, Kochia scoparia; conditions: for pest or weed control at 35 g/ha / pest or weed control at 70 g/ha / pest or weed control at 140 g/ha: Bassia scoparia, post-emergence, 504 h, postemergence, read-out: Visual Growth Reduction (%) 21 Days After Application, KCHSC; for pest or weed control at 35 g/ha: 35 g ai/ha; for pest or weed control at 70 g/ha: 70 g ai/ha; for pest or weed control at 140 g/ha: 140 g ai/ha; for GR50, KCHSC: effective dose for growth reduction of 50 percent; for GR50, KCHSC / GR80, KCHSC: probit analysis; for GR80, KCHSC: effective dose for growth reduction of 80 percent
Procedure: as §1, §2, §3, §4

SMILES | pest or weed control at 35 g/ha (SETVI (green foxtail)) [%] | pest or weed control at 70 g/ha (SETVI (green foxtail)) [%] | pest or weed control at 140 g/ha (SETVI (green foxtail)) [%] | GR50, SETVI (SETVI (green foxtail)) [g ai/ha] | GR80, SETVI (SETVI (green foxtail)) [g ai/ha] | pest or weed control at 35 g/ha (APESV (windgrass)) [%] | pest or weed control at 70 g/ha (APESV (windgrass)) [%] | pest or weed control at 140 g/ha (APESV (windgrass)) [%] | GR50, APESV (APESV (windgrass)) [g ai/ha] | GR80, APESV (APESV (windgrass)) [g ai/ha] | pest or weed control at 35 g/ha (TRZSS) [%] | pest or weed control at 70 g/ha (TRZSS) [%] | GR20, TRZSS (TRZSS) [g ai/ha] | pest or weed control at 35 g/ha (HORSS) [%] | pest or weed control at 70 g/ha (HORSS) [%] | GR20, HORSS (HORSS) [g ai/ha] | pest or weed control at 35 g/ha (KCHSC (kochia)) [%] | pest or weed control at 70 g/ha (KCHSC (kochia)) [%] | GR50, KCHSC (KCHSC (kochia)) [g ai/ha] | GR80, KCHSC (KCHSC (kochia)) [g ai/ha] | further results
COC(=O)c1nc(-c2ccc(OC(F)F)nc2)c(F)c(N)c1Cl [Compound 71] | 30 to 44 | 45 to 59 | 75 to 84 | 72 | >140 | 0 to 29 | 0 to 29 | 30 to 44 | >140 | >140 | 60 to 74 | 75 to 84 | 16 | 30 to 44 | 60 to 74 | 26 | 0 to 29 | 60 to 74 | 80 | >140 | pest or weed control at 140 g/ha (TRZSS): 85 to 94%; pest or weed control at 140 g/ha (HORSS): 75 to 84%; pest or weed control at 140 g/ha (KCHSC (kochia)): 60 to 74%
COC(=O)c1nc(-c2ccc(C(F)(F)F)nc2)c(Cl)c(N)c1Cl [Compound 83] | 0 to 29 | 60 to 74 | – | 63 | 139 | 30 to 44 | 30 to 44 | – | 89 | >140 | 60 to 74 | 75 to 84 | 4 | 75 to 84 | 85 to 94 | 3 | 0 to 29 | 30 to 44 | 113 | >140 | –
COC(=O)c1nc(-c2ccc(Cl)c(F)c2OC)cc(N)c1Cl [Compound 20] | 0 to 29 | 60 to 74 | 60 to 74 | 80 | >140 | 0 to 29 | 60 to 74 | 75 to 84 | 117 | >140 | 85 to 94 | 85 to 94 | 2 | 45 to 59 | 75 to 84 | 7 | 85 to 94 | 95 to 100 | 2 | 10 | pest or weed control at 140 g/ha (TRZSS): 85 to 94%; pest or weed control at 140 g/ha (HORSS): 85 to 94%; pest or weed control at 140 g/ha (KCHSC (kochia)): 95 to 100%
Nc1c(F)c(-c2ccc(OC(F)F)nc2)nc(C(=O)O)c1Cl [Compound 66] | 30 to 44 | 60 to 74 | 75 to 84 | 49 | 112 | 0 to 29 | 0 to 29 | 60 to 74 | 130 | >140 | 75 to 84 | 85 to 94 | 8 | 60 to 74 | 60 to 74 | 15 | 0 to 29 | 45 to 59 | 80 | >140 | pest or weed control at 140 g/ha (TRZSS): 95 to 100%; pest or weed control at 140 g/ha (HORSS): 85 to 94%; pest or weed control at 140 g/ha (KCHSC (kochia)): 60 to 74%
Nc1c(Cl)c(C(=O)O)nc(-c2ccc(C(F)(F)F)nc2)c1Cl [Compound 33] | 45 to 59 | 60 to 74 | 60 to 74 | 48 | >140 | 0 to 29 | 60 to 74 | 60 to 74 | 70 | 134 | 75 to 84 | 75 to 84 | 1 | 75 to 84 | 85 to 94 | 1 | 0 to 29 | 45 to 59 | 95 | >140 | pest or weed control at 140 g/ha (TRZSS): 85 to 94%; pest or weed control at 140 g/ha (HORSS): 85 to 94%; pest or weed control at 140 g/ha (KCHSC (kochia)): 60 to 74%
